Our source for the IC50 values is patent publication US6316472A, “Heterosubstituted pyridine derivatives as PDE 4 inhibitors” (Merck Frosst Canada & Co., priority 2000, dated 2001).

In the experiment the target is T1, GST-Met 248 PDE 4a (Homo sapiens, UniProt P27815).
T1 construct: human recombinant phosphodiesterase IVa (met-248); made in house; host or cells: baculovirus/Sf-9 insect cells
Description: SPA based PDE Activity Assay (hydrolysis of cAMP to AMP). The class given is biochemical. The note with it: 100 nM cAMP; purified GST fusion protein of human recombinant phosphodiesterase IVa (met-248), baculovirus/Sf-9; 30° C., 10 min. As to the method: SPA based PDE Activity Assay Protocol
Compounds which inhibit the hydrolysis of cAMP to AMP by the type-IV cAMP-specific phosphodiesterases were screened in 96-well plate format as follows:
In a 96 well-plate at 30° C. was added the test compound (dissolved in 2 μl DMSO), […] of substrate buffer containing [2,8-^3 H] adenosine 3',5'-cyclic phosphate (cAMP, 100 nM to 50 μM), 10 mM MgCl2, 1 mM EDTA, 50 mM Tris, pH 7.5. The reaction was initiated by the addition of […] of human recombinant PDE-IV (the amount was controlled so that ~10% product was formed in 10 min.). The reaction was stopped after 10 min. by the addition of 1 mg of PDE-SPA beads (Amersham). The product AMP generated was quantified on a Microbeta 96-well plate counter. The signal in the absence of enzyme was defined as the background. 100% activity was defined as the signal detected in the presence of enzyme and DMSO with the background subtracted. Percentage of inhibition was calculated accordingly. IC50 value was approximated with a non-linear regression fit using the standard 4-parameter/multiple binding sites equation from a ten point titration.
IC50 values shown in Table 7 were determined with 100 nM cAMP using the purified GST fusion protein of the human recombinant phosphodiesterase IVa (met-248) produced from a baculovirus/Sf-9 expression system.

T1 sequence (P27815 248-886 limits assumed): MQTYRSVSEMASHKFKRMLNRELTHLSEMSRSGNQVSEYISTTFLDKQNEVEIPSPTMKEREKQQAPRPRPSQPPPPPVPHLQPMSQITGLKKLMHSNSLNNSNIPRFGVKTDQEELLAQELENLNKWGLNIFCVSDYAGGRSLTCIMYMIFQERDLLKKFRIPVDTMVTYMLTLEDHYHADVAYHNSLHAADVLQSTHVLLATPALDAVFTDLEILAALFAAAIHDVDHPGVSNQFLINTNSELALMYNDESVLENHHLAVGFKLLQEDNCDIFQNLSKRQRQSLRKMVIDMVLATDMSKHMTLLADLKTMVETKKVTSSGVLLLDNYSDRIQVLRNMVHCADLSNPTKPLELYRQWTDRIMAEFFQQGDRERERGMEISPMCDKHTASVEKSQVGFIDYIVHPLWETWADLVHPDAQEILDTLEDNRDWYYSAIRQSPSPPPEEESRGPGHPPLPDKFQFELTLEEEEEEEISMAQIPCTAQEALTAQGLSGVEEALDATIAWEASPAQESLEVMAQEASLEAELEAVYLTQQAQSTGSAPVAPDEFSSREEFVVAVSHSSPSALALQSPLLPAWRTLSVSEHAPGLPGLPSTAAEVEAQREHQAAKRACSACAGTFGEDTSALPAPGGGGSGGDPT

As to `O=[N+]([O-])c1ccc(S(=O)(=O)c2ccc(C(Cc3cc[n+]([O-])cc3)c3ccc(OC(F)F)c(OC(F)F)c3)cn2)cc1` (centres unmarked) [Example 4, 4-{2-[3,4-Bis(difluoromethoxy)phenyl]-2-[6-(4-nitrobenzenesulfonyl)3-pyridyl]ethyl}pyridine-N-oxide], the IC50 was 21.2 nM. With `NS(=O)(=O)c1cccc(Sc2ccc(C(Cc3ccncc3)c3ccc(OC(F)F)c(OC(F)F)c3)cn2)c1` (centres unmarked) [Example 1, 4-{2-[3,4-Bis(difluoromethoxy)phenyl]-2-{6-[3-(aminosulfonyl)benzenethiol]3-pyridyl}ethyl}pyridine] the figure was 5.45 nM.

Broadly, the IC50 is the concentration at which inhibition is half-maximal.
